Reference: the supplement of paper PMC10307832

Key:
Test in all cases: relative viability (nuclei count vs DMSO), 5 days (fraction); higher = more cells survive
Dactolisib + Decitabine = compound: Cn1c(=O)n(-c2ccc(C(C)(C)C#N)cc2)c2c3cc(-c4cnc5ccccc5c4)ccc3ncc21 [Dactolisib] + Nc1ncn([C@H]2C[C@H](O)[C@@H](CO)O2)c(=O)n1 [Decitabine] (partner 2 µM)
In short: (§1)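 Dosing by pin tool came one day after lung cancer cell lines were seeded in 1536-well plates, using either one drug or a fixed anchor-drug dose plus five library-drug doses (not always all listed) in √10 steps. After 5 days, nuclei were counted on 4× images. Relative viability is treated-well nuclei count divided by vehicle-well nuclei count, and values are medians of duplicate plates.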

Dactolisib + Lapatinib = compound: Cn1c(=O)n(-c2ccc(C(C)(C)C#N)cc2)c2c3cc(-c4cnc5ccccc5c4)ccc3ncc21 [Dactolisib] + CS(=O)(=O)CCNCc1ccc(-c2ccc3ncnc(Nc4ccc(OCc5cccc(F)c5)c(Cl)c4)c3c2)o1 [Lapatinib] (partner 2 µM)
In short: as §1

AZ505 + Pemetrexed = compound: C1CCC(CC1)N(CCNCCC2=C3C(=C(C=C2)O)NC(=O)CO3)C(=O)CCNCCC4=CC(=C(C=C4)Cl)Cl [AZ505] + Nc1nc2[nH]cc(CCc3ccc(C(=O)N[C@@H](CCC(=O)O)C(=O)O)cc3)c2c(=O)[nH]1 [Pemetrexed] (partner 0.2 µM)
In short: as §1

AZ505 + Alpelisib = compound: C1CCC(CC1)N(CCNCCC2=C3C(=C(C=C2)O)NC(=O)CO3)C(=O)CCNCCC4=CC(=C(C=C4)Cl)Cl [AZ505] + Cc1nc(NC(=O)N2CCC[C@H]2C(N)=O)sc1-c1ccnc(C(C)(C)C(F)(F)F)c1 [Alpelisib] (partner 2 µM)
In short: as §1

Question: What does the source list for UMC-11?
Answer: relative viability (Dactolisib + Decitabine; first compound 0.002 µM): 0.577; relative viability (Dactolisib + Decitabine; first compound 0.006325 µM): 0.601; relative viability (Dactolisib + Decitabine; first compound 0.02 µM): 0.514; relative viability (Dactolisib + Decitabine; first compound 0.06325 µM): 0.366; relative viability (Dactolisib + Decitabine; first compound 0.2 µM): 0.346; relative viability (Dactolisib + Lapatinib; first compound 0.002 µM): 0.863; relative viability (Dactolisib + Lapatinib; first compound 0.006325 µM): 0.788; relative viability (Dactolisib + Lapatinib; first compound 0.02 µM): 0.78; relative viability (Dactolisib + Lapatinib; first compound 0.06325 µM): 0.316; relative viability (Dactolisib + Lapatinib; first compound 0.2 µM): 0.272; relative viability (AZ505 + Pemetrexed; first compound 0.08 µM): 0.757; relative viability (AZ505 + Pemetrexed; first compound 0.253 µM): 0.714; relative viability (AZ505 + Pemetrexed; first compound 0.8 µM): 0.705; relative viability (AZ505 + Pemetrexed; first compound 2.53 µM): 0.901; relative viability (AZ505 + Pemetrexed; first compound 8 µM): 0.894; relative viability (AZ505 + Alpelisib; first compound 0.08 µM): 0.936; relative viability (AZ505 + Alpelisib; first compound 0.253 µM): 1.13; relative viability (AZ505 + Alpelisib; first compound 0.8 µM): 0.899; relative viability (AZ505 + Alpelisib; first compound 2.53 µM): 0.827; relative viability (AZ505 + Alpelisib; first compound 8 µM): 1.04
